System: Jurkat cells
Assay: SynFinger library screen: CD69 expression of CRASH-IT (Zap70-PD1-degron) transduced Jurkat cells with or without lenalidomide, enrichment index from NGS reads
Format: cell-based
Parameters: key to EI / EI index (enrichment index): enrichment index; low EI = SynFinger with desired properties
Conditions: Table 6; dual substitutions in first hybrid zinc finger domain; Jurkat, 50 nM lenalidomide vs mock, CD69-HI/CD69-LO; low EI = desired
Description: […] Jurkat cells were transduced with the SynFinger library (SynFinger containing CRASH-IT switches) at a 12.8% transduction efficiency and sorted for high EGFP expression to enrich transduced cells. For quality control of the SynFinger transduced Jurkat cells, SynFinger sequences were amplified and analyzed by NGS. 10 randomly selected SynFinger encoding DNA sequences or DNA sequences encoding the same SynFinger amino acid sequences but contain 2 nucleotide mismatches due to alternative codon usage were used to assess ability to distinguish true SynFinger sequences from noise in the NGS data. 10/10 SynFinger encoding full-nucleotide sequence match sequences were observed within NGS data whereas the 2 nucleotide mismatch containing sequences were not detected.
Jurkat cells expressing the SynFinger library were treated with 50 nM lenalidomide (a suboptimal dose that activates only ˜50% of cells expressing a CRASH-IT switch containing the parental double hybrid degron in Jurkat cells, as compared to a maximally effective 1000 nM lenalidomide dose) or were mock treated for 24 hours, and subsequently activated with anti-CD3/anti-CD28 antibodies in the presence or absence of 50 nM lenalidomide for 5 hours. Afterwards, cells were stained with IR dye (1:400) and anti-CD69-PE (1:200). Cells were sorted for live (IR dye negative), EGFP high end CD69 high (top 5%) or CD69 low (bottom 5%) expression using Aria Fusion cytometers.
Subsequently, cells were washed with PBS, and cell pellets were frozen at −20° C. until DNA extraction. Genomic DNA was isolated using the DNeasy Blood & Tissue Kit (Qiagen) according to the manufacturer's instructions, using 5×10^6 cells per column. DNA was eluted in 22 μl RNAse free water. Deep sequencing adapters and indexes were added to SynFinger encoding DNA sequences using PCR amplification. Briefly, 3 μg genomic DNA (20 μl), indexed forward and reverse primers (10 μM, 2.5 μl each) and 25 μl NEBNext® High-Fidelity 2×PCR Master Mix were added to the PCR reaction. An optimized PCR reaction (98° C. for 30 s, (98° C. for 10 s, 56° C. for 10 s, 72° C. for 5 s)×25 cycles, 72° C. for 3 min was performed using Eppendorf PCR cyclers.
Indexed PCR products were run on agarose gel, relative DNA concentrations were estimated by measuring band intensity, and 12 indexed PCR reaction products were mixed per MiSeq chip. To increase sequence diversity, samples were mixed with 25% PhiX DNA. In total, 2 MiSeq chips were used (100 bp, single read). To distinguish genuine SynFinger sequences from sequencing errors, results were filtered using a reference list of actual sequences used in SynFinger library design (100% codon match). Sequences with a very low number of reads (sum of all samples below 500 reads) were excluded from analysis.
To identify SynFingers that improve sensitivity of CRASH-IT switches towards lenalidomide while preserving or improving stringency of switch mediated control of T cell activation in the absence of lenalidomide, an enrichment index (EI) value was calculated for each sequence as described below, and SynFingers were ranked according to their EI, with a low EI indicating a SynFinger with desired properties.
CD69-HI and […] read counts from top 100 SynFingers were compared with read counts from the parental double hybrid degron using a two-sided Fisher's exact test to determine enrichment of CD69-HI cells in the presence of lenalidomide and enrichment of CD69-LO cells in the absence of lenalidomide.
To further improve the sensitivity of double hybrid degron towards IMiDs, we performed a high throughput screen using a library of ˜50,200 CRASH-IT variants that encode either single or double amino acid substitutions at the indicated positions of the first hybrid zinc finger sequence, thereby changing 18 amino acids of this zinc finger into any amino acid except cysteine (FIG. 3). […]

| Substance | EI index (enrichment index) |
| --- | --- |
| 1 (LQCRICGFTCRLKGNLLRHIKLH) [compound 1] | 0 |
| 2 (LQCEICGFTCRRTGNLLRHIKLH) [compound 2] | 0.002912 |
| 3 (LQCEICGFTCRRKGNLMRHIKLH) [compound 3] | 0.003725 |
| 4 (LQCEICGFTCRQKMRLLRHIKLH) [compound 4] | 0.00411 |
| 5 (LQCEICGFTCRQVKNLLRHIKLH) [compound 5] | 0.004648 |
| 6 (LQCEICGFTCRQKNNLLRHIALH) [compound 6] | 0.004719 |
| 7 (LQCEICGFTCRQKNNLLRHIKRH) [compound 7] | 0.004969 |
| 8 (LQCEICGFTCRQLGNLLWHIKLH) [compound 8] | 0.006187 |
| 9 (LQCEICGFTCRRVGNLLRHIKLH) [compound 9] | 0.006877 |
| 10 (LQCWICGFTCRQKGNLLRHIYLH) [compound 10] | 0.00695 |
| 11 (LQCPICGFTCRQKSNLLRHIKLH) [compound 11] | 0.008068 |
| 12 (IQCEACGFTCRQKGNLLRHIKLH) [compound 12] | 0.008564 |
| 13 (LQCEICGFTCRQKGNMLRHIRLH) [compound 13] | 0.008761 |
| 14 (LQCEICGFTCRQKGNLIRHILLH) [compound 14] | 0.009984 |
| 15 (LQCLICGFTCRRKGNLLRHIKLH) [compound 15] | 0.01014 |
| 16 (LQCEICGFTCRRKGNLYRHIKLH) [compound 16] | 0.0107 |
| 17 (LQCIICGFTCRQKGNLLKHIKLH) [compound 17] | 0.0108 |
| 18 (LQCAICGFTSRQKGNLLRHIKLH) [compound 18] | 0.01133 |
| 19 (LQCEICGFTCRLKGNLLRHILLH) [compound 19] | 0.01177 |
| 20 (LQCKICGFTCRVKGNLLRHIKLH) [compound 20] | 0.01216 |
| 21 (LQCEICGFSCRQKGNLRRHIKLH) [compound 21] | 0.01255 |
| 22 (LQCKICGFTSRQKGNLLRHIKLH) [compound 22] | 0.01311 |
| 23 (LQCEICGFTCRKKGALLRHIKLH) [compound 23] | 0.0133 |
| 24 (LQCEICGFTCRQKHNLLRHIKNH) [compound 24] | 0.01351 |

| Substance | EI index (enrichment index) |
| --- | --- |
| 25 (LQCKICGFTCRQMGNLLRHIKLH) [compound 25] | 0.01383 |
| 26 (FQCEICGFTCRQKVNLLRHIKLH) [compound 26] | 0.01478 |
| 27 (LQCEICGFTCVQKGNLLRHIALH) [compound 27] | 0.01487 |
| 28 (LQCEICGFTCRRKGNLLRHIKHH) [compound 28] | 0.01589 |
| 29 (LQCEICGFTCRQVGWLLRHIKLH) [compound 29] | 0.01609 |
| 30 (LQCMICGFTFRQKGNLLRHIKLH) [compound 30] | 0.01673 |
| 31 (LQCEICGFTCRQKTRLLRHIKLH) [compound 31] | 0.01686 |
| 32 (LQCEICGFTCRQEKNLLRHIKLH) [compound 32] | 0.01693 |
| 33 (LQCDICGFTCRQKGNLLLHIKLH) [compound 33] | 0.01705 |
| 34 (LQCEICGFTCRQKYNLLRHISLH) [compound 34] | 0.01723 |
| 35 (LQCEICGFTARRKGNLLRHIKLH) [compound 35] | 0.01754 |
| 36 (YQCVICGFTCRQKGNLLRHIKLH) [compound 36] | 0.01769 |
| 37 (FQCEICGFTCRQKHNLLRHIKLH) [compound 37] | 0.01787 |
| 38 (LQCEICGYTCRKKGNLLRHIKLH) [compound 38] | 0.01794 |
| 39 (LQCEICGFTCRQKGRLLRHIKQH) [compound 39] | 0.01901 |
| 40 (LQCEICGFTCKQKKNLLRHIKLH) [compound 40] | 0.01915 |
| 41 (LQCEVCGFTCRKKGNLLRHIKLH) [compound 41] | 0.01944 |
| 42 (LQCEICGFTCRRKGNLLRHRKLH) [compound 42] | 0.01965 |
| 43 (FQCEICGFTCRQKGRLLRHIKLH) [compound 43] | 0.01977 |
| 44 (LQCEICGFTCRQKANLKRHIKLH) [compound 44] | 0.02064 |
| 45 (LQCIICGFTCRQKGNLWRHIKLH) [compound 45] | 0.0209 |
| 46 (LQCEICGFTCRQKGNLYRHYKLH) [compound 46] | 0.021 |
| 47 (LQCEICGFTCRQKGTLLRHIKRH) [compound 47] | 0.02209 |
| 48 (LQCEICGFTCRKKGNLLRHKKLH) [compound 48] | 0.02219 |

| Substance | EI index (enrichment index) |
| --- | --- |
| 49 (LQCEICGFTCRRKGSLLRHIKLH) [compound 49] | 0.02268 |
| 50 (LQCEICGFTCRNKKNLLRHIKLH) [compound 50] | 0.02307 |
| 51 (LQCEICGFTCRQKKNLLRHISLH) [compound 51] | 0.02309 |
| 52 (FQCEICGFTCRQKRNLLRHIKLH) [compound 52] | 0.0231 |
| 53 (LQCEICGFTCRQKGNLLRHYKTH) [compound 53] | 0.02363 |
| 54 (LQCEICGFTCRQKGNLLVHIALH) [compound 54] | 0.02408 |
| 55 (LQCEICGFTCRQKFKLLRHIKLH) [compound 55] | 0.0247 |
| 56 (LQCKICGFTCRHKGNLLRHIKLH) [compound 56] | 0.02543 |
| 57 (LQCEICGFTCRQKMNLVRHIKLH) [compound 57] | 0.02583 |
| 58 (LQCRICGFTCRQKGNMLRHIKLH) [compound 58] | 0.02584 |
| 59 (LQCEICGFTCRLKGNLLLHIKLH) [compound 59] | 0.02682 |
| 60 (LQCEICGFTCRQWGNYLRHIKLH) [compound 60] | 0.02739 |
| 61 (WQCEICGFTCRQYGNLLRHIKLH) [compound 61] | 0.0276 |
| 62 (LQCEICGFTCRQPGNLLRHIKRH) [compound 62] | 0.02767 |
| 63 (LQCWICGFTCRRKGNLLRHIKLH) [compound 63] | 0.02829 |
| 64 (LQCEICGFTCRQKGNLHLHIKLH) [compound 64] | 0.02947 |
| 65 (LQCEICGFTCRQKGNLLRHIFKH) [compound 65] | 0.02989 |
| 66 (LQCVICGFTCRQKGNLVRHIKLH) [compound 66] | 0.02989 |
| 67 (LQCEICGFTCRQQLNLLRHIKLH) [compound 67] | 0.0303 |
| 68 (HQCEICGFTCRQKGRLLRHIKLH) [compound 68] | 0.03141 |
| 69 (LQCEICGFTCRQKGNLDRHIKRH) [compound 69] | 0.03188 |
| 70 (LQCWICGFTCRQKMNLLRHIKLH) [compound 70] | 0.03192 |
| 71 (LQCEICGFTCRKKNNLLRHIKLH) [compound 71] | 0.03227 |
| 72 (YQCEICGFTCRQKGNLLRHIILH) [compound 72] | 0.03275 |

Reference: patent US20250206789A1, “ZINC FINGER DEGRON SEQUENCES” (STICHTING HET NEDERLANDS KANKER INSTITUUT-ANTONI VAN …, priority 2022, published 2025)
